Measured values from the supplement of paper PMC12463676, “Small-molecule dissolution of stress granules by redox modulation benefits ALS models” (Nature Chemical Biology, 2025).

What was measured:
lipoamide = compound: NC(=O)CCCCC1CCSS1 [lipoamide]; assay: thermal stability z-score vs DMSO; higher = more thermally stabilized by treatment; details: HeLa, lipoamide concentration 100 µM
Procedure: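 Cellular thermal proteome profiling in HeLa cells. Cells were treated with 100 µM lipoamide for 1 h, with or without 1 mM arsenate for a further 1 h, then heated to ten temperatures (37-66.3 °C), and soluble protein was quantified by TMT mass spectrometry relative to 0.1% DMSO controls. The thermal stability score (sum of log2 fold changes minus the abundance score) was transformed to a z-score; mean of n = 3 experiments.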

potassium arsenate = compound: O=[As]([O-])(O)O.[K+] [potassium arsenate]; assay: as above; details: HeLa; arsenate concentration 1 mM
Procedure: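 Cellular thermal proteome profiling in HeLa cells treated with 1 mM arsenate for 1 h (DMSO pretreatment), heated to ten temperatures (37-66.3 °C). Soluble protein was quantified by TMT mass spectrometry relative to DMSO controls; the thermal stability score was transformed to a z-score; mean of n = 3 experiments.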

[1] = arsenate co-treatment: 1 mM arsenate 1 h
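Note: each temperature applied for 3 min, abundance score taken as mean log2 fold change at the two lowest temperatures, z-score obtained by mean subtraction and division by SD.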

Sequence of UniProt O14734 (O14734 whole entry): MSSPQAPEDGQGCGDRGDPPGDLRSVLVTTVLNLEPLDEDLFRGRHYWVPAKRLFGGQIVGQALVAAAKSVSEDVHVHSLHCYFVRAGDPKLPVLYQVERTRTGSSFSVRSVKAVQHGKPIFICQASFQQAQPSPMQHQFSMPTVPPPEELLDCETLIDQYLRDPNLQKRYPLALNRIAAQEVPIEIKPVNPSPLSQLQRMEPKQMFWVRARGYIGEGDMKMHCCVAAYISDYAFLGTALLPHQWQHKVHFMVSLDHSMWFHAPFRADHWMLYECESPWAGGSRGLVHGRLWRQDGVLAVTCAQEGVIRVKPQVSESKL
Sequence of UniProt P61981 (P61981 whole entry): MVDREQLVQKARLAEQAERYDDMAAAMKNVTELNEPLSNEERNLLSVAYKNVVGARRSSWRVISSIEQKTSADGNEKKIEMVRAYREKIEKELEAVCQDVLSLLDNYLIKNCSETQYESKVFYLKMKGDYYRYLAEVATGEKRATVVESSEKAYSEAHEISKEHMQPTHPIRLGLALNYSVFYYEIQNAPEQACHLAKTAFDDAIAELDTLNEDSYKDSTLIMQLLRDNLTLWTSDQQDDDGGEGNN
Sequence of UniProt Q9HC44 (Q9HC44 whole entry): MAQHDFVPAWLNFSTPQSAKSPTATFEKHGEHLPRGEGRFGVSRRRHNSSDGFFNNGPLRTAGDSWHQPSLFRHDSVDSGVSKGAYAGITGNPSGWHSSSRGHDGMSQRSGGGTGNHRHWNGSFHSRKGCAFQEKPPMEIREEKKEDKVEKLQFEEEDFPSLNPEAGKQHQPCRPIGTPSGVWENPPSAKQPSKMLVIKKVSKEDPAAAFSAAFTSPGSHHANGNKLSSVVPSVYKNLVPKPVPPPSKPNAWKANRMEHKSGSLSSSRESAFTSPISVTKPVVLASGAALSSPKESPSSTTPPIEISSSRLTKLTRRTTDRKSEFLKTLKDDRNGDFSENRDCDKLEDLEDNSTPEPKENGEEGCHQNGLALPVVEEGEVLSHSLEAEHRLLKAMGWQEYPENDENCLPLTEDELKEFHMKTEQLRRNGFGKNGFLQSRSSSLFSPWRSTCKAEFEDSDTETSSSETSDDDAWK
Sequence of UniProt Q8WUK0 (Q8WUK0 whole entry): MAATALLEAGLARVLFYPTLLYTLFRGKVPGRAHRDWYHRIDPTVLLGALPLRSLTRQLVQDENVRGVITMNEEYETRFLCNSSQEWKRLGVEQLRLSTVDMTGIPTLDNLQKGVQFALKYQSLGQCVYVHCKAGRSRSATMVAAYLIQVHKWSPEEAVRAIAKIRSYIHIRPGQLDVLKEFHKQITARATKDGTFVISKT
Sequence of UniProt Q9BPX6 (Q9BPX6 whole entry): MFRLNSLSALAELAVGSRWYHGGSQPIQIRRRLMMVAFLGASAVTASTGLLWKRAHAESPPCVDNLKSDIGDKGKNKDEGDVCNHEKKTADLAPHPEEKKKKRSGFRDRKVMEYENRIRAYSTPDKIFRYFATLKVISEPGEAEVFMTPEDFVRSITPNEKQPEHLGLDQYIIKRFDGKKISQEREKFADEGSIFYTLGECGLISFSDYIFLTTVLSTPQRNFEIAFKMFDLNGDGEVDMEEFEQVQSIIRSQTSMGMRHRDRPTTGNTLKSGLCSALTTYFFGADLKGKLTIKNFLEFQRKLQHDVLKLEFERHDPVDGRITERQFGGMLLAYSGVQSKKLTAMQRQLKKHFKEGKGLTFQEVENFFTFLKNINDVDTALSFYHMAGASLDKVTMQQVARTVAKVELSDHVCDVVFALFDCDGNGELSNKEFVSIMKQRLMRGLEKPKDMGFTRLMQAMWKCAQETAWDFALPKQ
Sequence of UniProt Q5D1E8 (Q5D1E8 whole entry): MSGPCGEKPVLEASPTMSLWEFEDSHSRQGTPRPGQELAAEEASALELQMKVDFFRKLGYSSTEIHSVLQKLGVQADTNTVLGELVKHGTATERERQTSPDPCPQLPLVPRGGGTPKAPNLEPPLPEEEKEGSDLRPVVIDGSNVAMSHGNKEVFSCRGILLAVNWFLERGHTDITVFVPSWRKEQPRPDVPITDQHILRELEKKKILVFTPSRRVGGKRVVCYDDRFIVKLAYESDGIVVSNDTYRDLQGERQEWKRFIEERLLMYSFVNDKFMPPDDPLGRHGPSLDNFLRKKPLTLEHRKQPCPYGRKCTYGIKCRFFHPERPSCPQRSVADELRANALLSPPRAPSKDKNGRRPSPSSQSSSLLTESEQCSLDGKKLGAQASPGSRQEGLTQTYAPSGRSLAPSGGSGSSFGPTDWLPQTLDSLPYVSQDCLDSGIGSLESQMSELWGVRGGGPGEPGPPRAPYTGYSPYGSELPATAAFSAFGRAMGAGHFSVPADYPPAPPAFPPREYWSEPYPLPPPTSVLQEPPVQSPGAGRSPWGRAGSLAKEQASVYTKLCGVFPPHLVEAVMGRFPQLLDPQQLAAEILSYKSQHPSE
Sequence of UniProt Q7KYR7 (Q7KYR7 whole entry): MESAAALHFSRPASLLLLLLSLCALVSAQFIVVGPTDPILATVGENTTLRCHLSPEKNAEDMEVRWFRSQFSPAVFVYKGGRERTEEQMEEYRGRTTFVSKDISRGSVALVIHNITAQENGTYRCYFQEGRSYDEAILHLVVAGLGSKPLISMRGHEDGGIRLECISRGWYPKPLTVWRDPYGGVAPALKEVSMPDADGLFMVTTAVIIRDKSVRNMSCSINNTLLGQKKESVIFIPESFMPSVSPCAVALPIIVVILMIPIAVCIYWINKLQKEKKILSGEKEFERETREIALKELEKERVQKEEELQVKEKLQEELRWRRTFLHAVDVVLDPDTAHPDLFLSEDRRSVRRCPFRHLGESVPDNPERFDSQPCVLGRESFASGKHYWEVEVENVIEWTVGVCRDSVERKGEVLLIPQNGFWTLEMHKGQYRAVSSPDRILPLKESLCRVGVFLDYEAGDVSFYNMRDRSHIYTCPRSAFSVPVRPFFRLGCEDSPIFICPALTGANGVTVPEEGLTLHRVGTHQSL
Sequence of UniProt Q13630 (Q13630 whole entry): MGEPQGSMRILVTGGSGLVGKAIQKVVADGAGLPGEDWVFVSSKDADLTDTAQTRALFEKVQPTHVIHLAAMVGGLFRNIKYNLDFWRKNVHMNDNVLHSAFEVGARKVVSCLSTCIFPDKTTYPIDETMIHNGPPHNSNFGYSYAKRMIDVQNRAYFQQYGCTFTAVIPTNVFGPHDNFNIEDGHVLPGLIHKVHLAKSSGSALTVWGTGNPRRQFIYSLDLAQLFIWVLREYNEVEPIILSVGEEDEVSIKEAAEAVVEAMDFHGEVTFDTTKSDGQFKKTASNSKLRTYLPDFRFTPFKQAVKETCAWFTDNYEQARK
Sequence of UniProt O94992 (O94992 whole entry): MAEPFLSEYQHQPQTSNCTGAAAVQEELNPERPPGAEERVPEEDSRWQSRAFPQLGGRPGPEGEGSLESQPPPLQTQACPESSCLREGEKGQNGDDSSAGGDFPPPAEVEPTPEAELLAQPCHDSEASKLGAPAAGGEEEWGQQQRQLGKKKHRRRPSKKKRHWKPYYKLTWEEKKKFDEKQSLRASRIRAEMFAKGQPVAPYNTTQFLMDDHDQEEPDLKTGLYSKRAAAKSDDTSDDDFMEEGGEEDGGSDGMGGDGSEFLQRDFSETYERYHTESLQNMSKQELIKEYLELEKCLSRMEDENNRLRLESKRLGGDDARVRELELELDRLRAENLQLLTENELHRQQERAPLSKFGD
Sequence of UniProt P14174 (P14174 whole entry): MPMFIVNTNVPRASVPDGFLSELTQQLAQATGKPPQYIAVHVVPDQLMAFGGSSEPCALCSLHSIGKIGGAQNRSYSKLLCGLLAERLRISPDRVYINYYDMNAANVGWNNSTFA
Sequence of UniProt Q9H0R8 (Q9H0R8 whole entry, looked up): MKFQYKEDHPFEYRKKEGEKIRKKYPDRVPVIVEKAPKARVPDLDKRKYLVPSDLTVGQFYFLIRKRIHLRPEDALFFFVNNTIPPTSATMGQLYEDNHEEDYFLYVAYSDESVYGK
Sequence of UniProt Q8N653 (Q8N653 whole entry): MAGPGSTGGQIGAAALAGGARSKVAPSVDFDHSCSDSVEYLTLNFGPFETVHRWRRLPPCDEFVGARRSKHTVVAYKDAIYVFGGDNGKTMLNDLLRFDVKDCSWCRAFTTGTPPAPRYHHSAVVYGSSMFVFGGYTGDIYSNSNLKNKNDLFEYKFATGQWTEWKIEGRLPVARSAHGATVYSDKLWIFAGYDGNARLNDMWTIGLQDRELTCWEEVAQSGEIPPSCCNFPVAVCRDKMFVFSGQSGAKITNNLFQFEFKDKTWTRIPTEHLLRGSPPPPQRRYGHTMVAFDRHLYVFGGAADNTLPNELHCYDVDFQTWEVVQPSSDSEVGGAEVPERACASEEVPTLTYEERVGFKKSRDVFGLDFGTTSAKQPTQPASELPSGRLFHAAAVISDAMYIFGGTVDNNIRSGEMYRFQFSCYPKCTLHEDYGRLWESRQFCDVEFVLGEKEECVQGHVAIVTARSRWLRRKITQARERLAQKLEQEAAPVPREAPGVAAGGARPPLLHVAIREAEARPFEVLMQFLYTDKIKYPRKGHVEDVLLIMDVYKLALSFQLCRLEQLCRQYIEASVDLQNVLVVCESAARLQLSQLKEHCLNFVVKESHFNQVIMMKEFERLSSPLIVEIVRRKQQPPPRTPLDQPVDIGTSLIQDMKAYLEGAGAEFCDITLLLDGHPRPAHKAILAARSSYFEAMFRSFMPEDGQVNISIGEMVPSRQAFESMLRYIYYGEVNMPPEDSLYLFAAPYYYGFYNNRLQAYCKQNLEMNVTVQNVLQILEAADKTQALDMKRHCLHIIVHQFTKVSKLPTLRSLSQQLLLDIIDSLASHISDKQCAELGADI
Sequence of UniProt Q9BQD3 (Q9BQD3 whole entry): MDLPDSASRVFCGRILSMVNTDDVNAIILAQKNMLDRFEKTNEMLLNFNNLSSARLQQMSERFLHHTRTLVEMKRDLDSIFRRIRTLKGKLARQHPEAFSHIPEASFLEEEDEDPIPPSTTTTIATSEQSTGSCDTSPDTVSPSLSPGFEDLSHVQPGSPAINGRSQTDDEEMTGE
Sequence of UniProt Q9H299 (Q9H299 whole entry): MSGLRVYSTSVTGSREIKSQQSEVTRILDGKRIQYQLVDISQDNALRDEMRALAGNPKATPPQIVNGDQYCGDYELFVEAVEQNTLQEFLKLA

Row | Target | thermal stability z-score (lipoamide; [1]) | thermal stability z-score (lipoamide; arsenate co-treatment: none) | thermal stability z-score (potassium arsenate)
1 | RTCA (UniProt O00442) | 0.213 | 0.21 | -0.695
2 | WDR18 (UniProt Q9BV38) | 1.38 | 0.361 | 0.122
3 | EDEM1 (UniProt Q92611) | -0.0592 | -0.0491 | 0.0795
4 | MED25 (UniProt Q71SY5) | -0.264 | -0.252 | 0.0488
5 | TCEB2 (UniProt Q15370) | 0.764 | 0.455 | 0.154
6 | WDR3 (UniProt Q9UNX4) | -0.031 | 0.0101 | -0.0987
7 | ADAM10 (UniProt O14672) | -1.72 | -1.52 | -0.0434
8 | ACOT8 (UniProt O14734) | 0.492 | 0.113 | 0.0313
9 | GNL3L (UniProt Q9NVN8) | -0.151 | 0.0609 | -0.0324
10 | IMUP (UniProt Q9GZP8) | -0.123 | -0.141 | 0.162
11 | WDR45 (UniProt Q9Y484) | -0.0374 | 0.11 | 0.292
12 | THUMPD2 (UniProt Q9BTF0) | -0.2 | -0.425 | 0.0998
13 | ZFAND3 (UniProt Q9H8U3) | 0.918 | 0.518 | -1.25
14 | CCDC90B (UniProt Q9GZT6) | 0.364 | 0.229 | 0.136
15 | SMC6 (UniProt Q96SB8) | -0.138 | 0.113 | 0.067
16 | VPS50 (UniProt Q96JG6) | -0.564 | -0.541 | 0.134
17 | PTPMT1 (UniProt Q8WUK0) | 0.619 | 0.326 | 0.767
18 | ZBTB10 (UniProt Q96DT7) | 0.00974 | -0.093 | -0.307
19 | LRSAM1 (UniProt Q6UWE0) | -0.763 | -0.714 | -0.676
20 | COG2 (UniProt Q14746) | 0.0711 | -0.137 | 0.6
21 | PHKA1 (UniProt P46020) | -0.125 | -0.051 | 0.0887
22 | MICU1 (UniProt Q9BPX6) | -0.305 | -0.0396 | 0.746
23 | EMC10 (UniProt Q5UCC4) | -0.0818 | -0.577 | 0.0739
24 | TBCE (UniProt Q15813) | -0.969 | -0.354 | -0.0811

Row | Target | thermal stability z-score (lipoamide; [1]) | thermal stability z-score (lipoamide; arsenate co-treatment: none) | thermal stability z-score (potassium arsenate)
25 | POLR3G (UniProt O15318) | -0.603 | -0.505 | -0.356
26 | DKC1 (UniProt O60832) | 0.735 | 0.39 | 0.437
27 | LZTR1 (UniProt Q8N653) | -0.12 | 0.0373 | -0.137
28 | SMYD2 (UniProt Q9NRG4) | 0.863 | 0.716 | 1.28
29 | TSTA3 (UniProt Q13630) | -0.467 | -0.784 | -0.387
30 | TBC1D23 (UniProt Q9NUY8) | -0.408 | -0.264 | 0.407
31 | WDR75 (UniProt Q8IWA0) | 0.0395 | 0.0658 | 0.152
32 | C12ORF45 (UniProt Q8N5I9) | 0.42 | 0.511 | 0.591
33 | SRXN1 (UniProt Q9BYN0) | 0.0621 | -0.041 | 0.115
34 | ERMP1 (UniProt Q7Z2K6) | 0.0556 | -0.119 | 0.227
35 | SERINC3 (UniProt Q13530) | -0.42 | -0.641 | -0.788
36 | GEMIN6 (UniProt Q8WXD5) | 0.0364 | -0.18 | -0.129
37 | NIPBL (UniProt Q6KC79) | -0.0211 | -0.00358 | -0.167
38 | YWHAG (UniProt P61981) | 0.0458 | -0.0254 | -0.403
39 | MMGT1 (UniProt Q8N4V1) | 0.584 | 0.397 | 0.966
40 | CEP350 (UniProt Q5VT06) | -0.154 | -0.182 | -0.0541
41 | HEXIM1 (UniProt O94992) | 0.736 | 0.591 | 0.384
42 | CEP76 (UniProt Q8TAP6) | -0.336 | 0.197 | -1.36
43 | ALG2 (UniProt Q9H553) | -1.02 | -1.3 | -0.992
44 | BTN2A1 (UniProt Q7KYR7) | -0.659 | -0.638 | 0.0455
45 | SH3BGRL3 (UniProt Q9H299) | -0.0209 | -0.395 | 0.000903
46 | PTGES3 (UniProt Q15185) | 0.0467 | 0.127 | -0.454
47 | ZC3H12A (UniProt Q5D1E8) | 0.0783 | -0.187 | -0.189
48 | PDSS1 (UniProt Q5T2R2) | 0.272 | 0.466 | 0.423

Row | Target | thermal stability z-score (lipoamide; [1]) | thermal stability z-score (lipoamide; arsenate co-treatment: none) | thermal stability z-score (potassium arsenate)
49 | PROSER2 (UniProt Q86WR7) | -0.111 | -0.0827 | -0.644
50 | MIF (UniProt P14174) | 0.245 | -0.0795 | -0.0642
51 | MRPL48 (UniProt Q96GC5) | -0.0867 | 0.198 | 0.101
52 | YPEL5 (UniProt P62699) | -0.116 | -0.259 | -0.117
53 | HSPB11 (UniProt Q9Y547) | -0.309 | 0.124 | -0.48
54 | MOCOS (UniProt Q96EN8) | 0.344 | 0.221 | -0.535
55 | CLSPN (UniProt Q9HAW4) | -0.352 | 0.214 | 1.12
56 | PIKFYVE (UniProt Q9Y2I7) | 0.00547 | -0.0522 | -0.189
57 | TMUB2 (UniProt Q71RG4) | 1.9 | 1.78 | 2.27
58 | RCC1 (UniProt P18754) | -0.231 | -0.0308 | -0.548
59 | NSL1 (UniProt Q96IY1) | 0.254 | -0.0663 | -0.0597
60 | TOP1 (UniProt P11387) | 0.0566 | 0.449 | -0.734
61 | GPBP1L1 (UniProt Q9HC44) | -0.469 | -0.326 | 0.365
62 | NTHL1 (UniProt P78549) | 0.00215 | -0.00667 | -0.137
63 | KXD1 (UniProt Q9BQD3) | 0.543 | 0.711 | 0.28
64 | HNRNPA0 (UniProt Q13151) | -1.04 | -0.776 | -0.778
65 | PIGG (UniProt Q5H8A4) | -0.479 | -0.752 | 0.14
66 | HIBADH (UniProt P31937) | -1.36 | -0.391 | -1.36
67 | CYSTM1 (UniProt Q9H1C7) | -0.79 | 0.912 | -1.22
68 | ENY2 (UniProt Q9NPA8) | 0.894 | 0.42 | 0.181
69 | DTYMK (UniProt P23919) | -0.383 | 0.537 | -1.22
70 | ISG20L2 (UniProt Q9H9L3) | -0.0445 | -0.0231 | -0.367
71 | GABARAPL1 (UniProt Q9H0R8) | -1.22 | -2.02 | -0.849
